# From ChEMBL document CHEMBL3112450, “Synthesis and in vitro antitumor evaluation of primary amine substituted quinazoline linked benzimidazole” (Bioorg Med Chem Lett, 2014)
# Key:
# RPMI-8226 = assay: Cytotoxicity against human RPMI8226 cells assessed as growth inhibition at 10 uM after 48 hrs by SRB assay; type: functional; conditions: RPMI-8226, 48 h, read-out: GI
# UACC-62 = assay: Cytotoxicity against human UACC62 cells after 48 hrs by SRB assay; type: functional; conditions: UACC-62, 48 h
# RXF 393 = assay: Cytotoxicity against human RXF393 cells assessed as cell growth at 10^-4 M after 48 hrs by SRB assay; type: functional; conditions: RXF 393, 48 h, read-out: Activity
# SK-MEL-5 = assay: Cytotoxicity against human SK-MEL-5 cells assessed as cell growth at 10^-7 M after 48 hrs by SRB assay; type: functional; conditions: SK-MEL-5, 48 h, read-out: Activity
# ACHN [1] = assay: Cytotoxicity against human ACHN cells assessed as cell growth at 10^-8 M after 48 hrs by SRB assay; type: functional; conditions: read-out: Activity
# A549 = assay: Cytotoxicity against human A549 cells assessed as cell growth at 10^-6 M after 48 hrs by SRB assay; type: functional; conditions: A549, 48 h, read-out: Activity
# [2] = Cytotoxicity against human NCI-ADR-RES cells assessed as cell growth at 10^-6 M after 48 hrs by SRB assay; type: functional; conditions: read-out: Activity
# SNB-19 [3] = assay: Cytotoxicity against human SNB19 cells assessed as cell growth at 10^-4 M after 48 hrs by SRB assay; type: functional; conditions: SNB-19, 48 h, read-out: Activity
# SNB-19 [4] = assay: Cytotoxicity against human SNB19 cells assessed as cell growth at 10^-8 M after 48 hrs by SRB assay; type: functional; conditions: SNB-19, 48 h, read-out: Activity
# BT-549 = assay: Cytotoxicity against human BT549 cells assessed as growth inhibition at 10 uM after 48 hrs by SRB assay; type: functional; conditions: BT-549, 48 h, read-out: GI
# M14 = assay: Cytotoxicity against human M14 cells assessed as cell growth at 10^-6 M after 48 hrs by SRB assay; type: functional; conditions: M14, 48 h, read-out: Activity
# ACHN [5] = assay: Cytotoxicity against human ACHN cells after 48 hrs by SRB assay; type: functional
# SF-539 = assay: Cytotoxicity against human SF539 cells assessed as cell growth at 10^-4 M after 48 hrs by SRB assay; type: functional; conditions: SF-539, 48 h, read-out: Activity
# PC-3 [6] = assay: Cytotoxicity against human PC3 cells after 48 hrs by SRB assay; type: functional; conditions: PC-3, 48 h
# HL-60(TB) = assay: Cytotoxicity against human HL-60(TB) cells assessed as cell growth at 10^-6 M after 48 hrs by SRB assay; type: functional; conditions: HL-60, 48 h, read-out: Activity
# MCF7 = assay: Cytotoxicity against human MCF7 cells assessed as cell growth at 10^-4 M after 48 hrs by SRB assay; type: functional; conditions: MCF7, 48 h, read-out: Activity
# K562 = assay: Cytotoxicity against human K562 cells assessed as cell growth at 10^-8 M after 48 hrs by SRB assay; type: functional; conditions: K562, 48 h, read-out: Activity
# PC-3 [7] = assay: Cytotoxicity against human PC3 cells assessed as cell growth at 10^-6 M after 48 hrs by SRB assay; type: functional; conditions: PC-3, 48 h, read-out: Activity
# NCI-H322M = assay: Cytotoxicity against human NCI-H322M cells assessed as cell growth at 10^-4 M after 48 hrs by SRB assay; type: functional; conditions: read-out: Activity
# NCI-H522 [8] = assay: Cytotoxicity against human NCI-H522 cells assessed as cell growth at 10^-6 M after 48 hrs by SRB assay; type: functional; conditions: NCI-H522, 48 h, read-out: Activity
# NCI-H226 = assay: Cytotoxicity against human NCI-H226 cells after 48 hrs by SRB assay; type: functional; conditions: NCI-H226, 48 h
# SR [9] = assay: Cytotoxicity against human SR cells assessed as cell growth at 10^-7 M after 48 hrs by SRB assay; type: functional; conditions: read-out: Activity
# A498 [10] = assay: Cytotoxicity against human A498 cells assessed as cell growth at 10^-6 M after 48 hrs by SRB assay; type: functional; conditions: A498, 48 h, read-out: Activity
# SR [11] = assay: Cytotoxicity against human SR cells assessed as cell growth at 10^-8 M after 48 hrs by SRB assay; type: functional; conditions: read-out: Activity
# A498 [12] = assay: Cytotoxicity against human A498 cells assessed as cell growth at 10^-7 M after 48 hrs by SRB assay; type: functional; conditions: A498, 48 h, read-out: Activity
# CAKI-1 = assay: Cytotoxicity against human Caki1 cells assessed as cell growth at 10^-8 M after 48 hrs by SRB assay; type: functional; conditions: CAKI-1, 48 h, read-out: Activity
# ACHN [13] = assay: Cytotoxicity against human ACHN cells assessed as cell growth at 10^-6 M after 48 hrs by SRB assay; type: functional; conditions: read-out: Activity
# SN12C [14] = assay: Cytotoxicity against human SN12C cells assessed as cell growth at 10^-4 M after 48 hrs by SRB assay; type: functional; conditions: read-out: Activity
# [15] = Cytotoxicity against human NCI-ADR-RES cells assessed as growth inhibition at 10 uM after 48 hrs by SRB assay; type: functional; conditions: read-out: GI
# NCI-H522 [16] = assay: Cytotoxicity against human NCI-H522 cells after 48 hrs by SRB assay; type: functional; conditions: NCI-H522, 48 h
# PC-3 [17] = assay: Cytotoxicity against human PC3 cells assessed as cell growth at 10^-7 M after 48 hrs by SRB assay; type: functional; conditions: PC-3, 48 h, read-out: Activity
# SN12C [18] = assay: Cytotoxicity against human SN12C cells assessed as cell growth at 10^-8 M after 48 hrs by SRB assay; type: functional; conditions: read-out: Activity
# SK-MEL-28 = assay: Cytotoxicity against human SK-MEL-28 cells after 48 hrs by SRB assay; type: functional; conditions: SK-MEL-28, 48 h
# PC-3 [19] = assay: Cytotoxicity against human PC3 cells assessed as cell growth at 10^-8 M after 48 hrs by SRB assay; type: functional; conditions: PC-3, 48 h, read-out: Activity
# HOP-62 = assay: Cytotoxicity against human HOP62 cells assessed as cell growth at 10^-7 M after 48 hrs by SRB assay; type: functional; conditions: HOP-62, 48 h, read-out: Activity
# [20] = Cytotoxicity against human UACC257 cells assessed as cell growth at 10^-7 M after 48 hrs by SRB assay; type: functional; conditions: UACC-257, 48 h, read-out: Activity
# NCI-H23 = assay: Cytotoxicity against human NCI-H23 cells assessed as cell growth at 10^-8 M after 48 hrs by SRB assay; type: functional; conditions: NCI-H23, 48 h, read-out: Activity
# SNB-75 = assay: Cytotoxicity against human SNB75 cells after 48 hrs by SRB assay; type: functional, cell-based; conditions: SNB-75, 48 h
structure (smiles),measurement,setting,value
C=CCn1c(C)nc2ccc(Nc3nc(Nc4ncccn4)nc4ccccc34)cc21,inhibition of growth at 10 µM,RPMI-8226,30%
C=CCn1c(C)nc2ccc(Nc3nc(Nc4ccc5nc(C)n(CC=C)c5c4)c4ccccc4n3)cc21,GI50,UACC-62,1550 nM
same,TGI,UACC-62,2890 nM
same,CC50,UACC-62; read-out: LC50 (the source's name),5380 nM
same,growth at 100 µM,RXF 393,-31%
same,growth at 0.1 µM,SK-MEL-5,94%
same,growth at 0.01 µM,ACHN [1],103%
same,growth at 1 µM,A549,93%
same,growth at 1 µM,[2],90%
same,growth at 100 µM,SNB-19 [3],-34%
same,growth at 0.01 µM,SNB-19 [4],92%
same,inhibition of growth at 10 µM,BT-549,30%
same,growth at 1 µM,M14,88%
same,GI50,ACHN [5],1640 nM
same,LC50,ACHN [5],5510 nM
same,TGI,ACHN [5],3010 nM
same,growth at 100 µM,SF-539,-61%
same,GI50,PC-3 [6],1370 nM
same,TGI,PC-3 [6],2900 nM
same,growth at 1 µM,HL-60(TB),95%
same,growth at 100 µM,MCF7,-22%
same,growth at 0.01 µM,K562,96%
same,growth at 1 µM,PC-3 [7],71%
same,growth at 100 µM,NCI-H322M,-58%
same,growth at 1 µM,NCI-H522 [8],114%
same,GI50,NCI-H226,1750 nM
same,TGI,NCI-H226,3310 nM
same,growth at 0.1 µM,SR [9],93%
same,growth at 1 µM,A498 [10],42%
same,growth at 0.01 µM,SR [11],97%
same,growth at 0.1 µM,A498 [12],64%
same,growth at 0.01 µM,CAKI-1,93%
same,growth at 1 µM,ACHN [13],91%
same,growth at 100 µM,SN12C [14],-50%
same,inhibition of growth at 10 µM,[15],40%
same,GI50,NCI-H522 [16],2030 nM
same,TGI,NCI-H522 [16],3530 nM
same,growth at 0.1 µM,PC-3 [17],88%
same,growth at 0.01 µM,SN12C [18],96%
same,GI50,SK-MEL-28,1840 nM
same,TGI,SK-MEL-28,3280 nM
same,growth at 0.01 µM,PC-3 [19],93%
same,growth at 0.1 µM,HOP-62,96%
same,growth at 0.1 µM,[20],92%
same,growth at 0.01 µM,NCI-H23,96%
C=CCn1c(C)nc2cc(Nc3nc(Nc4ccc5nc(C)n(CC=C)c5c4)c4ccccc4n3)ccc21,GI50,UACC-62,1260 nM
same,TGI,UACC-62,2590 nM
same,growth at 100 µM,RXF 393,-31%
same,growth at 0.1 µM,SK-MEL-5,94%
same,growth at 0.01 µM,ACHN [1],105%
same,growth at 1 µM,[2],85%
same,GI50,SNB-75,375 nM
same,LC50 (concentration killing 50% of cells),SNB-75,5310 nM
same,TGI,SNB-75,1560 nM
same,growth at 100 µM,SNB-19 [3],-35%
same,growth at 0.01 µM,SNB-19 [4],91%
same,growth at 1 µM,M14,72%
same,GI50,ACHN [5],610 nM
same,TGI,ACHN [5],1830 nM
same,growth at 100 µM,SF-539,-94%
same,GI50,PC-3 [6],305 nM
same,TGI,PC-3 [6],1020 nM
same,growth at 1 µM,HL-60(TB),90%
same,growth at 100 µM,MCF7,3%
same,growth at 0.01 µM,K562,103%
same,growth at 1 µM,PC-3 [7],1%
same,growth at 100 µM,NCI-H322M,-70%
same,growth at 1 µM,NCI-H522 [8],-83%
same,GI50,NCI-H226,2030 nM
same,LC50,NCI-H226,> 100000 nM
same,TGI,NCI-H226,5040 nM
same,growth at 0.1 µM,SR [9],89%
same,growth at 1 µM,A498 [10],93%
same,growth at 0.01 µM,SR [11],95%
same,growth at 0.1 µM,A498 [12],100%
same,growth at 0.01 µM,CAKI-1,94%
same,growth at 1 µM,ACHN [13],35%
same,growth at 100 µM,SN12C [14],-22%
same,GI50,NCI-H522 [16],171 nM
same,TGI,NCI-H522 [16],332 nM
same,growth at 0.1 µM,PC-3 [17],96%
same,growth at 0.01 µM,SN12C [18],94%
same,GI50,SK-MEL-28,2020 nM
same,TGI,SK-MEL-28,3860 nM
same,growth at 0.01 µM,PC-3 [19],98%
same,growth at 0.1 µM,HOP-62,99%
same,growth at 0.01 µM,NCI-H23,95%
